PubChem BioAssay (NCI)
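Assay format: 96-well plates, 48-hour exposure. TGI is the concentration that stops growth completely.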

Assays:
Assay in all cases: NCI-60 cell line screen, 48 h
786-0 renal = system: 786-0 renal
A498 renal = system: A498 renal
A549 NSCLC = system: A549 NSCLC
ACHN renal = system: ACHN renal
BT-549 breast = system: BT-549 breast
CAKI-1 renal = system: CAKI-1 renal
CCRF-CEM leukemia = system: CCRF-CEM leukemia
COLO 205 colon = system: COLO 205 colon
DU-145 prostate = system: DU-145 prostate
EKVX NSCLC = system: EKVX NSCLC
HCT-116 colon = system: HCT-116 colon
HCT-15 colon = system: HCT-15 colon
HL-60(TB) leukemia = system: HL-60(TB) leukemia
HOP-62 NSCLC = system: HOP-62 NSCLC
HS 578T breast = system: HS 578T breast
HT29 colon = system: HT29 colon
IGROV1 ovarian = system: IGROV1 ovarian
K-562 leukemia = system: K-562 leukemia
KM12 colon = system: KM12 colon
LOX IMVI melanoma = system: LOX IMVI melanoma
M14 melanoma = system: M14 melanoma
MALME-3M melanoma = system: MALME-3M melanoma
MCF7 breast = system: MCF7 breast
MDA-MB-231 breast = system: MDA-MB-231 breast
MDA-MB-435 = system: MDA-MB-435
MDA-N = system: MDA-N
MOLT-4 leukemia = system: MOLT-4 leukemia
NCI-H226 lung = system: NCI-H226 lung
NCI-H23 lung = system: NCI-H23 lung
NCI-H460 lung = system: NCI-H460 lung
NCI-H522 lung = system: NCI-H522 lung
NCI/ADR-RES ovarian = system: NCI/ADR-RES ovarian
OVCAR-3 ovarian = system: OVCAR-3 ovarian
OVCAR-4 ovarian = system: OVCAR-4 ovarian
OVCAR-5 ovarian = system: OVCAR-5 ovarian
OVCAR-8 ovarian = system: OVCAR-8 ovarian
PC-3 prostate = system: PC-3 prostate
RPMI-8226 leukemia = system: RPMI-8226 leukemia
RXF 393 renal = system: RXF 393 renal
SF-268 CNS = system: SF-268 CNS
SF-295 CNS = system: SF-295 CNS
SK-MEL-2 melanoma = system: SK-MEL-2 melanoma
SK-MEL-28 melanoma = system: SK-MEL-28 melanoma
SK-MEL-5 melanoma = system: SK-MEL-5 melanoma
SN12C renal = system: SN12C renal
SNB-19 CNS = system: SNB-19 CNS
SW-620 colon = system: SW-620 colon
T-47D breast = system: T-47D breast
TK-10 renal = system: TK-10 renal
U251 CNS = system: U251 CNS
UACC-257 melanoma = system: UACC-257 melanoma
UACC-62 melanoma = system: UACC-62 melanoma
UO-31 renal = system: UO-31 renal
HCC-2998 colon = system: HCC-2998 colon
SF-539 CNS = system: SF-539 CNS
SK-OV-3 ovarian = system: SK-OV-3 ovarian
SNB-75 CNS = system: SNB-75 CNS
HOP-92 NSCLC = system: HOP-92 NSCLC

Measured: TGI

O=c1[nH]nc(Cc2ccccc2)n1/N=C/c1ccc(/C=N/n2c(Cc3ccccc3)n[nH]c2=O)cc1
50.7 µM: CCRF-CEM leukemia
47 µM: MOLT-4 leukemia
50.5 µM: K-562 leukemia
not listed: HCC-2998 colon | SF-539 CNS | SK-OV-3 ovarian | SNB-75 CNS | HOP-92 NSCLC
> 100 µM: all other assays above

Cc1ccc(C2C(C(=O)C(C)(C)C)N2S(=O)(=O)c2ccc(C)cc2)cc1 (centres undefined)
35.6 µM: M14 melanoma
78.1 µM: CCRF-CEM leukemia
45.8 µM: MDA-MB-435
46.5 µM: IGROV1 ovarian
47.5 µM: HCT-15 colon
49.3 µM: OVCAR-5 ovarian
57.5 µM: SNB-19 CNS
52 µM: T-47D breast
75.9 µM: NCI/ADR-RES ovarian
35.4 µM: HCT-116 colon
33.6 µM: HCC-2998 colon
55.1 µM: NCI-H226 lung
39.8 µM: MDA-MB-231 breast
38.6 µM: DU-145 prostate
48.5 µM: NCI-H23 lung
62.3 µM: MCF7 breast
65.3 µM: K-562 leukemia
97.2 µM: TK-10 renal
53.6 µM: LOX IMVI melanoma
40.6 µM: SN12C renal
37 µM: EKVX NSCLC
42 µM: U251 CNS
34.6 µM: COLO 205 colon
32.6 µM: UO-31 renal
96.2 µM: OVCAR-4 ovarian
49.1 µM: MALME-3M melanoma
75.3 µM: SK-MEL-28 melanoma
51.9 µM: OVCAR-8 ovarian
30.7 µM: UACC-62 melanoma
62 µM: OVCAR-3 ovarian
46.1 µM: RXF 393 renal
94.6 µM: HOP-62 NSCLC | SF-268 CNS
82.5 µM: HS 578T breast
59.1 µM: CAKI-1 renal
69.6 µM: SNB-75 CNS
28.9 µM: SF-539 CNS
> 100 µM: A549 NSCLC | KM12 colon | PC-3 prostate | SF-295 CNS | SK-MEL-2 melanoma | SK-OV-3 ovarian
74.7 µM: SW-620 colon
37.5 µM: BT-549 breast
65.2 µM: HT29 colon
34.8 µM: MDA-N
36.1 µM: NCI-H522 lung
64.2 µM: RPMI-8226 leukemia

O=C1/C(=N\n2c(-c3ccncc3)n[nH]c2=S)c2cc(Cl)ccc2N1CN1CCCCC1
50.3 µM: MOLT-4 leukemia
75 µM: IGROV1 ovarian
33.2 µM: NCI-H522 lung
59.2 µM: SK-MEL-2 melanoma
40.2 µM: LOX IMVI melanoma
93.2 µM: HS 578T breast
81.1 µM: CCRF-CEM leukemia
76.2 µM: UACC-257 melanoma
38.3 µM: RXF 393 renal
47 µM: HL-60(TB) leukemia
not listed: RPMI-8226 leukemia | HCC-2998 colon
> 100 µM: all other assays above

Cc1csc(-n2nc(C)cc2C)n1
not listed: MOLT-4 leukemia | HOP-92 NSCLC
> 100 µM: all other assays above

CCOC(=O)c1nnsc1NC(=O)NN
not listed: MOLT-4 leukemia | OVCAR-4 ovarian | HOP-92 NSCLC
> 100 µM: all other assays above
